Patent US10457665B2, “1,4-di-(4-methylthiophenyl)-3-phtaloylazetidine-2-one and the derivatives thereof” (Universite De Nantes, priority 2015, dated 2019)
One block for each compound: values may come before it.

What was measured:
CB1R (pcDNA3.1-mCB1) = target: T1, CB1R (pcDNA3.1-mCB1) (Mus musculus, UniProt P47746); assay: GloSensor cAMP assay in CB1R-transfected HEK293T/17 cells; assay type: cell-based; details: for cAMP concentrations in the absence of agonist (AEA): HEK293T/17 cells transfected with mCB1, forskolin 1 μM, FIG. 2
T1 construct: expressed in transfected cells; host or cells: HEK293T/17 (ATCC), transient transfection with FuGENE HD
Description: HEK293T/17 (ATCC) cells were cultured in DMEM 10% FCS, then seeded at 30000 cells/well in 96-well plates. After 24 h, the cells were subjected to transient transfection by FuGENE HD (Promega) by pcDNA3.1-mCB1 (50 ng) and pGlo (100 ng) plasmids with or without pertussis toxin (PTX). For the control assays, the cells were transfected with empty pcDNA3 (EV) and pGlo vectors with or without PTX. At 48 h (24 h post-transfection), the cells were loaded for 2 h with 2% GloReagent in CO2-independent medium with 10% FCS (80 μL/well).
The cells were then treated by adding, at t=0, 10 μL/well of Forskolin (FSK) 1 μM final, in order to increase the basal cAMP concentration. The kinetics of appearance of cAMP was monitored for 10 minutes. At t=10, the molecules to be tested were added and the cAMP variations measured for 20 minutes. The light signal was measured in RLU and is expressed as % response relative to the signal read at t=10 min (FSK1 μM). Sigmoidal curves were obtained by measurement at t=10 min after addition of the molecule to be tested (thus t=20 min total) of the percentage of light signal as a function of molecule concentration. The 4PL regression was carried out using the Sigma Plot software and made it possible to obtain an EC50 (1 experiment, n=3).

C57BL/6 mice = assay: Gastrointestinal transit (charcoal), anandamide-induced inhibition; assay type: in vivo, mouse; details: agonist alone, 10 mg/kg i.p.
Description: Transit through the stomach and the intestine was measured via oral administration of vegetable charcoal suspended in gum arabic used herein as nonabsorbable marker. Briefly, following a short fast, C57BL/6 mice were injected intraperitoneally (i.p.) with anandamide (10 mg/kg) in the presence or absence of the molecule of interest JM-00.266 (i.e., compound IA) (10 mg/kg) before oral charcoal administration. 25 minutes later, the animals were sacrificed by cervical dislocation in order to entirely remove the intestine. The distance between the beginning of the pylorus and the location of the charcoal bolus was measured.

[1] = system: CB1R expression in liver explants of ob/ob mice; assay: Liver explant culture, CB1R gene expression (RT-PCR); assay type: cell-based, mouse; details: liver explants of ob/ob mice treated 21 h, FIG. 1
Description: The liver of the mice was perfused in situ, under sodium pentobarbital anaesthesia (50 mg/kg), with Hank's medium (pH 7.4) saturated with oxygen. Next, the liver was sectioned using a Brendel/Vitron slicer (Tucson, Ariz., USA) in the same medium. The liver sections (about 200 μm) were then incubated 21 h in William's medium E (WME) oxygenated and supplemented with deactivated foetal calf serum (10%) and antibiotic/antifungal cocktail (1%) under controlled atmosphere (5% CO2), to which is added either the antagonist to be tested or vehicle.
Total messenger RNA (mRNA) extraction was carried out with Tri Reagent (Euromedex, France) and consecutive synthesis of complementary DNA (cDNA) was carried out from 1 μg of mRNA with the Bio-Rad iScripttm Reverse Transcription super mix kit (Bio-Rad, France).
Gene expression was evaluated by semi-quantitative real-time reverse transcription-polymerase chain reaction (RT-PCR). The primers used were designed using the Primer3Plus software (http://www.bioinformatics.nl/cgi-bin/primer3plus/primer3plus.cgi) and were synthesized by MWG-Biotech (TATA box-binding protein: Sense […], antisense […]; CB1R: Sense […], antisense aaccccacccagtttgaac). Semi-quantification of gene expression was obtained by taking into account the efficacy of each PCR and after standardization with the reporter gene, TATA box-binding protein.

CB1R -/- mice = assay: Acute oral glucose tolerance test (OGTT) in CB1R KO mice; assay type: in vivo, mouse; details: 10 mg/kg i.p., OGTT 2 g/kg
Description: (§1) In order to evaluate the short-term effects of the rimonabant-like molecules, as well as their selectivity for CB1R, wild-type C57BL/6 mice and CB1R −/− mice underwent an oral glucose tolerance test (OGTT at 2 g/kg) 10 min after i.p. injection of vehicle or of JM-02.003 or JM-00.266 (i.e., compound IA) (10 mg/kg). Blood glucose was measured at times t=0, t=15 min, t=30 min, t=45 min, t=60 min, t=90 min, and t=120 min post-oral. glucose administration using a Contour®TS blood glucose monitor (ref. 81574201, Bayer HealthCare) and reactive strips (ref. 81574274, Bayer HealthCare).

wild-type C57BL/6 mice = assay: Acute oral glucose tolerance test (OGTT) in wild-type mice; assay type: in vivo, mouse; details: 10 mg/kg i.p. 10 min before 2 g/kg oral glucose load, wild-type C57Bl/6J mice
Description: as §1

obese C57BL/6 mice [2] = assay: Food intake, body weight and body composition (EchoMRI) during 30-day chronic treatment; assay type: in vivo, mouse
Description: (§2) In order to determine the long-term effects of the molecules of interest, C57BL/6 mice made obese by means of a high-sucrose, high-fat diet (HSHF: 30% crude fat, 33.5% carbohydrates; ref. E15126-34; ref. E15126-34, SSNIFF, Soest, Germany) for 20 weeks. These mice then received daily an i.p. injection of rimonabant, JM-00.266 (i.e., compound IA) or vehicle for a period of 30 days. In parallel, weight and food intake were monitored every two days following the beginning of the treatment.
The long-term effect of the treatment on body composition was measured using an EchoMRI™ scanner allowing non-invasive analysis of fat mass, lean mass and body fluid composition by nuclear magnetic resonance (NMR) on the live animal without anaesthesia.

[3] = system: CB1R expression in liver explants of ob/ob mice; details: previous study (Jourdan et al. 2012); cited from earlier work
obese C57BL/6 mice [4] = assay: ITT before and after 30-day chronic treatment; assay type: in vivo, mouse; details: obese mice after 30 days of treatment, 10 mg/kg
Description: (§3) In order to evaluate the long-term effects of the treatment on blood glucose control, glucose tolerance (OGTT) and insulin sensitivity (ITT) were evaluated pre- and post-treatment. Thus, for the OGTT the mice were force-fed glucose (2 g/kg), and for the ITT the mice received an i.p. injection of insulin (0.5 IU/kg). In both cases, blood glucose was measured at times t=0, t=15 min, t=30 min, t=45 min, t=60 min, t=90 min, and t=120 min post-glucose ingestion using a Contour®TS blood glucose monitor (ref. 81574201, Bayer HealthCare) and reactive strips (ref. 81574274, Bayer HealthCare).

obese C57BL/6 mice [5] = assay: Plasma liver markers after 30-day chronic treatment; assay type: in vivo, mouse
Description: as §2
Total cholesterol, triglycerides and hepatic markers were assayed by a Dimension Vista Intelligent Lab System (Siemens, Saint-Denis, France) using suitable reagents.

obese C57BL/6 mice [6] = assay: OGTT before and after 30-day chronic treatment; assay type: in vivo, mouse; details: obese mice after 30 days of treatment, 10 mg/kg
Description: as §3

obese C57BL/6 mice [7] = assay: Open-field test after 30-day chronic treatment; assay type: in vivo, mouse; details: end of 30-day treatment, 10 mg/kg i.p.
Description: Locomotor activity of the mice was measured at the conclusion of the chronic treatment with rimonabant or molecule JM-00.266 (i.e., compound IA) by an infrared monitoring system. To that end, the animals were placed individually in 43×43 cm plexiglass boxes (MED associates) for 20 min. Two series of 16 pulsed infrared beams were spaced 2.5 cm apart on opposite walls to record ambulatory X-Y movements at 100 ms resolution. The centre was defined as a central 32×32 cm square. In addition to locomotor activity information, this test makes it possible to predict anxiolytic activity in response to novelty or to an anxiogenic environment. The variables measured in the open field are total ambulatory activity (in cm), the number of entries and the time spent in the central area as well as the distance traversed in the centre divided by the total distance traversed.

[8] = obese mice, 10 mg/kg i.p. daily, 30 days

T1 sequence (P47746 whole entry): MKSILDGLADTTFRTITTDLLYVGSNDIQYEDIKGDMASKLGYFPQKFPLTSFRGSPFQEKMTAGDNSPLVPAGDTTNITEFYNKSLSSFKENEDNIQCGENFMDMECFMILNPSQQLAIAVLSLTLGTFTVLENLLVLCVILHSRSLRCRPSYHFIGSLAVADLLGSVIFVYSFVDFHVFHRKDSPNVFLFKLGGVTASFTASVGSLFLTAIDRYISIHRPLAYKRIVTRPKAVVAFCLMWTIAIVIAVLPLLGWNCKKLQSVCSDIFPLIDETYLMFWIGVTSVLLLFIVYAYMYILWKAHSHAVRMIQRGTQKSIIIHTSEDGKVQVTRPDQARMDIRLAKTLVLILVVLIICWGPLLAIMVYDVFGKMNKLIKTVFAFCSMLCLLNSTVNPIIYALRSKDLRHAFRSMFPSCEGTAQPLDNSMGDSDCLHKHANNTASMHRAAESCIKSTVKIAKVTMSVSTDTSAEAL

Structure (SMILES): CCCCC/C=C\C/C=C\C/C=C\C/C=C\CCCC(=O)NCCO [AEA, reference compound]
intracellular cAMP concentration on activation of the receptors by agonist (CB1R (pcDNA3.1-mCB1); data not shown): reduction | gastrointestinal transit (C57BL/6 mice): strongly inhibited

Structure (SMILES): CSc1ccc(C2C(N3C(=O)c4ccccc4C3=O)C(=O)N2c2ccccc2)cc1 (stereo not drawn) [JM-00.242]
hepatic CB1R expression [1]: not selected for the remainder of the study

Structure (SMILES): CSc1ccc(C2C(N3C(=O)c4ccccc4C3=O)C(=O)N2c2ccc(Cl)cc2)cc1 (stereo not drawn) [JM-00.246]
hepatic CB1R expression [1]: not selected for the remainder of the study

Structure (SMILES): O=C1C(N2C(=O)c3ccccc3C2=O)C(c2ccncc2)N1Cc1cccc(Cl)c1 (stereo not drawn) [JM-01.1006]
cAMP concentrations in the absence of agonist (AEA) (CB1R (pcDNA3.1-mCB1)): no effect | hepatic CB1R expression [1]: significant decrease

The next lines start with results.

cAMP concentrations in the absence of agonist (AEA) (CB1R (pcDNA3.1-mCB1)): increased
Structure (SMILES): COc1cc(OC)cc(N2C(=O)C(N3C(=O)c4ccccc4C3=O)C2c2ccncc2)c1 (stereo not drawn) [JM-02.003]
improvement in glucose tolerance in CB1R KO mice (CB1R -/- mice): persists | glucose tolerance compared with vehicle (wild-type C57BL/6 mice): improves glucose tolerance | hepatic CB1R expression [1]: significant decrease

ALPI plasma concentration (obese C57BL/6 mice [5]; [8]): 37.4 ± 2.4 | Gamma GT plasma concentration (obese C57BL/6 mice [5]; [8]): <3 U/L | Total bilirubin plasma concentration (obese C57BL/6 mice [5]; [8]): <2 µmol/L | motor activity (obese C57BL/6 mice [7]): increases motor activity | time spent in the centre of the arena / anxiety state (obese C57BL/6 mice [7]): not altered
Structure (SMILES): Cc1c(C(=O)NN2CCCCC2)nn(-c2ccc(Cl)cc2Cl)c1-c1ccc(Cl)cc1 [SR141716, reference compound]
fat mass versus control mice (obese C57BL/6 mice [2]; end of 30-day treatment, NMR): lower fat mass | lean mass versus control mice (obese C57BL/6 mice [2]; end of 30-day treatment, NMR): higher lean mass | body weight relative to control mice (obese C57BL/6 mice [2]; [8]): lost weight | food intake compared with control mice (obese C57BL/6 mice [2]; [8]): transiently decrease their food intake | CB1R expression in liver explants [3]: reduced | insulin resistance (ITT) (obese C57BL/6 mice [4]): improved | ALT and AST concentrations in plasma of obese mice versus control (obese C57BL/6 mice [5]; 30-day chronic treatment): significantly decreased | liver damage markers compared with the control (obese C57BL/6 mice [5]; 30-day chronic treatment): does not cause an increase | ALT plasma concentration (obese C57BL/6 mice [5]; [8]): 21.6 ± 2.3 U/L | AST plasma concentration (obese C57BL/6 mice [5]; [8]): 46.4 ± 3.1 U/L | basal blood glucose (obese C57BL/6 mice [6]): significant improvement | glucose tolerance (OGTT 2 g/kg) (obese C57BL/6 mice [6]): significant improvement
